Assay results as given in US20250179032A1, “HETEROCYCLIC INHIBITORS OF GLUT9 FOR TREATMENT OF DISEASE” (HORIZON THERAPEUTICS IRELAND DAC, priority 2022, published 2025).
Like-named read-outs stand apart in the source and are kept apart here.

Target: T1, H. sapiens SLC2A9 variant 2 (GLUT9B) (Homo sapiens, UniProt Q9NRM0)
T1 sequence (Q9NRM0 1-511 isoform Q9NRM0-2): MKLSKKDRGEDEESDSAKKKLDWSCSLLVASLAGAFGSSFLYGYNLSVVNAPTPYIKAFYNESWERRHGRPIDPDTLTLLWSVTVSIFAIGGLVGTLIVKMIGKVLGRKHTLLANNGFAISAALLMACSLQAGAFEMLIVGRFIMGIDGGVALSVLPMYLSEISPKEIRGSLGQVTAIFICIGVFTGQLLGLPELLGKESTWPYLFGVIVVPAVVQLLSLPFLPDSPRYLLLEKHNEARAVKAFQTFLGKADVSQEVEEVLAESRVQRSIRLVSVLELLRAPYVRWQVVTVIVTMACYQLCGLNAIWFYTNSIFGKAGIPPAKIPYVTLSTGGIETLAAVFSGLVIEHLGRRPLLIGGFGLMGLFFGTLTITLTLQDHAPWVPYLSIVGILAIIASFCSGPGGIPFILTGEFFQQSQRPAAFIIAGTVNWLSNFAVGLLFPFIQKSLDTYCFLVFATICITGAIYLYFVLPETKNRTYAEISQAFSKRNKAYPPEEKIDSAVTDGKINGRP
Assay: GLUT9 functional assay: uric acid uptake in HEK293T cells, allantoin formation by MS/MS as proxy of GLUT9B inhibition
Format: cell-based
Details: HEK293T cells stably expressing GLUT9B and transiently A. oryzae uricase, uric acid 0.3 mM, 37° C.
Experimental: Uric acid stocks (9 mM, Millipore-Sigma, U0881) were generated in 125 mM choline chloride (Millipore-Sigma, C7017) and the concentration was determined at 293 nm using a molar extinction coefficient of 9600 M- ^1 cm- ^1) after collecting the absorbance spectra from 220-350 nm. Allantoin stocks (12 mM Toronto Research Chemicals, A540500) were generated in LCMS grade water (Thermo Scientific, 51140). The concentration of allantoin was determined by qNMR (Michigan State University). HEK293T cells were purchased from ATCC (HEK 293T/17 SF). Hanks buffered saline salts (HBSS) was purchased from Millipore-Sigma (H6648-1L).
SLC2A9 variant 2 was assayed in sodium gluconate buffer was composed of 125 mM sodium gluconate (TCI Chemicals, G0041-500G), 4.8 mM potassium gluconate (TCI Chemicals, G0040-500G), 1.2 mM calcium gluconate (TCI Chemicals, G0037-500G), 1.2 mM potassium phosphate (pH 7.4, Millipore-Sigma, 17835), 1.2 mM MgSO4, Millipore-Sigma, M2773-500G), 25 mM HEPES pH 7.3, (Millipore-Sigma, 54457). The final pH of the buffer was 7.4. Urate 1 was assayed in the same buffer save the pH was made to be 5.5 using 25 mM MES (pH 5.5) buffer vs 25 mM HEPES (pH 7.3) buffer.
Human untagged clone for (untagged)-human solute carrier family 2 member 9 (SLC2A9), transcript variant (SLC2A9/NM_001001290, FIG. 1 and FIG. 2; SEQ ID NOS: 3 and 4) was purchased from Origene (Cat #SC319239). SLC2A9 variant 2 (GLUT9B) gene was amplified by PCR using the following primer to allow for the introduction of EcoR1 and Not1 sites using the primers below.
HEK293T clonal stable cell lines containing the SLC2A9 variant 2 construct in the bicistronic pIRESpuro vector were generated using Viafect™ (Promega E4981) as per the manufactures instructions and puromycin selection (5 μg×mL^−1).
Uric acid uptake was measured in HEK293T cells stably expressing H. sapiens SLC2A9 variant 2 (GLUT9B) and transiently expressing A. oryzae uricase. Thus, decreased allantoin formation was used as a proxy of GLUT9B inhibition. Briefly, clonal cells were plated (53,000 cells/cm^2) in DMEM with 10% FBS. Twenty-four hours later, A. oryzae uricase was transfected, and assay conducted 3 days later across a 12-point curve in buffer (in mM: 125 sodium gluconate, 4.8 potassium gluconate, 1.2 calcium gluconate, 1.2 potassium phosphate, 1.2 magnesium sulfate4, 25 HEPES; pH 7.4) with uric acid at the GLUT9B Km (0.3 mM) for 15 min or for 60 min, at 37° C. Following wash (Hanks, 37° C.), plates were sealed, incubated (5 min, RT) and cells freeze-thawed prior to lysing in water and shaking (30 min RT). Lysates were filtered through PVDF and subjected to MSMS using a 10 mM ammonium acetate-based mobile phase on a porous graphitic carbon column. Allantoin was detected in positive ion mode. Desired analyte concentrations were quantitated by integrating the area under the curve followed by a log-logistic regression model and data compared to a standard curve prepared in a matching HEK293T biological matrix.
Mass spectrometry measurement of allantoin was completed using an Agilent RapidFire 300 coupled to a Sciex API 4000 mass spectrometer. The stationary phase was an Agilent cartridge D (hypercarb). Mobile phase A was 10 mM ammonium acetate. Mobile phase B was 5 mM ammonium acetate, 25% acetonitrile, 25% acetone. Allantoin was detected in positive ion mode with the following compound ID settings: Q1 159, Q3 115.8, DP 57, CE 12.5 Dwell 100 ms. The source settings were CAD 10, CUR 20, GS1 50, GS250 IS/NC: 5000, TEM 650, EP 10, CXP 10 where Q1 and Q3 resolution were set to low.
Data was quantitated using Area under the curve integration was performed with the RapidFire™ Integrator (Agilent Technologies) for the desired analytes. Quantitation was completed using in a using a log-logistic regression model using allantoin in matching HEK293T biological matrix.

[1] = 15 minute assay, read-out: 15 min IC50
[2] = 60 minute assay, read-out: 60 min IC50

Structure (SMILES)	IC50 [1]	IC50 [2]
CCCCc1cnc(-c2ccc(OC)cc2)c(N2CCC(S(C)(=O)=O)CC2)n1 [Compound 8, 5-Butyl-2-(4-Methoxyphenyl)-3-(4-(Methylsulfonyl)Piperidin-1-yl)pyrazine]	> 2000 nM	
COCCCc1cnc(-c2ccc3occc3c2)c(N2CCC(C(=O)O)CC2C)n1 (racemic) [Compound 180, 1-(3-(benzofuran-5-yl)-6-(3-Methoxypropyl)Pyrazin-2-yl)-2-methylpiperidine-4-carboxylic acid]		< 500 nM
O=C(O)C1CCN(c2nc(CCCOCC(F)(F)F)cnc2-c2ccc3occc3c2)CC1 [Compound 177, 1-(3-(benzofuran-5-yl)-6-(3-(2,2,2-trifluoroethoxy)propyl)pyrazin-2-yl)piperidine-4-carboxylic acid]	< 500 nM	
Fc1cc(-c2ncc(CCC(F)(F)F)nc2N2CCC(c3nn[nH]n3)CC2)cc2ccoc12 [Compound 69, 3-(4-(2H-tetrazol-5-yl)piperidin-1-yl)-2-(7-fluorobenzofuran-5-yl)-5-(3,3,3-trifluoropropyl)pyrazine]	< 500 nM	
COCCCc1cnc(-c2ccn3ncnc3c2)c(N2CCC(C(=O)O)CC2)n1 [Compound 212, 1-(3-([1,2,4]triazolo[1,5-a]pyridin-7-yl)-6-(3-methoxypropyl)pyrazin-2-yl)piperidine-4-carboxylic acid]		> 2000 nM
O=C(O)C1CCN(c2nc(COCC(F)(F)F)cnc2-c2ccc(OC3CC3)c(F)c2)CC1 [Compound 76, 1-(3-(4-cyclopropoxy-3-fluorophenyl)-6-((2,2,2-trifluoroethoxy)methyl)pyrazin-2-yl)piperidine-4-carboxylic acid]	500 to 2000 nM	
COCCCc1cnc(-c2ccnc3cc(F)c(OC)cc23)c(N2CCC(C(=O)O)CC2)n1 [Compound 222, 1-(3-(7-fluoro-6-methoxyquinolin-4-yl)-6-(3-methoxypropyl)pyrazin-2-yl)piperidine-4-carboxylic acid]		> 2000 nM
COCc1cnc(-c2cc(F)c3c(c2)CCO3)c(N2CCC(C(=O)O)CC2)n1 [Compound 55, 1-(3-(7-fluoro-2,3-dihydrobenzofuran-5-yl)-6-(methoxymethyl)pyrazin-2-yl)piperidine-4-carboxylic acid]	500 to 2000 nM	
COCCCc1cnc(-c2cccc3nn(C)cc23)c(N2CCC(C(=O)O)CC2)n1 [Compound 215, 1-(6-(3-methoxypropyl)-3-(2-methyl-2H-indazol-4-yl)pyrazin-2-yl)piperidine-4-carboxylic acid]		> 2000 nM
COCCOc1ccc(-c2ncc(COCC(F)(F)F)nc2N2CCC(C(=O)NS(C)(=O)=O)CC2)cc1 [Compound 67, 1-(3-(4-(2-methoxyethoxy)phenyl)-6-((2,2,2-trifluoroethoxy)methyl)pyrazin-2-yl)-N-(methylsulfonyl)piperidine-4-carboxamide]	> 2000 nM	
O=C(O)C1CCN(c2nc(CCCOCC(F)(F)F)cnc2-c2ccc3c(c2)OCO3)CC1 [Compound 178, 1-(3-(benzo[d][1,3]dioxol-5-yl)-6-(3-(2,2,2-trifluoroethoxy)propyl)pyrazin-2-yl)piperidine-4-carboxylic acid]		500 to 2000 nM
COCCCc1cnc(-c2ccc(F)c(F)c2)c(N2CCC(C(=O)O)CC2)n1 [Compound 255, 1-(3-(3,4-difluorophenyl)-6-(3-methoxypropyl)pyrazin-2-yl)piperidine-4-carboxylic acid]		500 to 2000 nM
COCCCc1cnc(-c2ccc3occc3c2)c(N2CCC[C@@H](C(=O)O)C2)n1 (single isomer, unassigned) [Compound 236]		500 to 2000 nM
O=C(O)CC1CCN(c2nc(CCC(F)(F)F)cnc2-c2cc(F)c3occc3c2)C1 (stereo not drawn) [Compound 88, 2-(1-(3-(7-fluorobenzofuran-5-yl)-6-(3,3,3-trifluoropropyl)pyrazin-2-yl)pyrrolidin-3-yl)acetic acid]	500 to 2000 nM	
COCCCc1cnc(-c2ccc3c(c2)CCCS3(=O)=O)c(N2CCC(C(=O)O)CC2)n1 [Compound 234, 1-(3-(1,1-dioxidothiochroman-6-yl)-6-(3-methoxypropyl)pyrazin-2-yl)piperidine-4-carboxylic acid]		> 2000 nM
CCC(F)(F)Cc1cnc(-c2ccc3occc3c2)c(N2CCC(C(=O)O)CC2)n1 [Compound 149, 1-(3-(benzofuran-5-yl)-6-(2,2-difluorobutyl)pyrazin-2-yl)piperidine-4-carboxylic acid]	< 500 nM	
O=C(O)CC1CN(c2nc(CCC(F)(F)F)cnc2-c2cc(F)c3occc3c2)C1 [Compound 90, 2-(1-(3-(7-fluorobenzofuran-5-yl)-6-(3,3,3-trifluoropropyl)pyrazin-2-yl)azetidin-3-yl)acetic acid]	500 to 2000 nM	
CCCCc1cnc(-c2ccc(OC)cc2)c(-c2cnc(C(=O)O)nc2)c1 [Compound 23, 5-(5-butyl-2-(4-methoxyphenyl)pyridin-3-yl)pyrimidine-2-carboxylic acid]	> 2000 nM	
O=C(O)C1CCN(c2nc(CCCC(F)(F)F)cnc2-c2ccc3ncoc3c2)CC1 [Compound 109, 1-(3-(benzo[d]oxazol-6-yl)-6-(4,4,4-trifluorobutyl)pyrazin-2-yl)piperidine-4-carboxylic acid]	500 to 2000 nM	
CCCCc1cnc(-c2ccc(OC)cc2)c(-c2ccc3c(C(=O)O)coc3c2)c1 [Compound 40, 6-(5-butyl-2-(4-methoxyphenyl)pyridin-3-yl)benzofuran-3-carboxylic acid]	< 500 nM	
COCCOc1ccc(-c2ncc(CCC(F)(F)C(F)(F)F)nc2N2CCC(C(=O)O)CC2)cc1 [Compound 125, 1-(3-(4-(2-methoxyethoxy)phenyl)-6-(3,3,4,4,4-pentafluorobutyl)pyrazin-2-yl)piperidine-4-carboxylic acid]	500 to 2000 nM	
CCCCc1cnc(-c2ccc(OCCOC)cc2)c(N2CCC(C(=O)O)CC2)n1 [Compound 13, 1-(6-Butyl-3-(4-(2-Methoxyethoxy)Phenyl)Pyrazin-2-yl)Piperidine-4-carboxylic acid]	< 500 nM	
CCCCc1cnc(-c2ccc(OC)cc2)c(-c2cn(CC(=O)O)nn2)c1 [Compound 29, 2-(4-(5-butyl-2-(4-methoxyphenyl)pyridin-3-yl)-1H-1,2,3-triazol-1-yl)acetic acid]	< 500 nM	
CCCCc1nc(-c2ccc(OC)cc2)c(N2CCC(C(=O)O)CC2)o1 [Compound 28, 1-(2-butyl-4-(4-methoxyphenyl)oxazol-5-yl)piperidine-4-carboxylic acid]	500 to 2000 nM	
